According to US11377453B2, “Crystal of compound having JAK-inhibiting activity” (NIPPON SHINYAKU CO., LTD., priority 2016, dated 2022):
Where a name gives a salt, the structure may show the parent alone.

What was measured:
Assay type in all cases: biochemical
JAK1 = molecular target: T1, JAK1 (Homo sapiens, UniProt P23458); assay: JAK tyrosine kinase inhibitory activity in the presence of 1 mM ATP (ELISA), JAK1
T1 construct: purchased Carna Biosciences, Inc
Experimental: (§1) The test compound was dissolved in dimethyl sulfoxide (DMSO) to 10 mM and further diluted with DMSO to the concentrations of 1000, 100, 10, 1, 0.1 and 0.01 μM, respectively. For JAK1, these solutions of the test compound at the six concentrations 10 mM, 1000 μM, 100 μM, 10 μM, 1 μM and 0.1 μM were used. For JAK2 and JAK3, these solutions of the test compound at the six concentrations 1000 μM, 100 μM, 10 μM, 1 μM, 0.1 μM and 0.01 μM were used. The test compound solutions were diluted further to 20-fold with an assay buffer to obtain a sample solution. 15 mM Tris-HCl (pH7.5), 0.01 (v/v) % Tween-20 and 1 mM dithiothreitol were used as an assay buffer. DMSO was diluted to 20-fold with the assay buffer and was used as a negative control.
(§2) The activity was determined by ELISA method. Each of the sample solutions was added to a streptavidin coated 96-well plate (DELFIA Strip Plate 8×12 well, PerkinElmer) at 10 μL/well (n=2). […] Finally, JAK tyrosine kinase (Carna Biosciences, Inc.), which was previously diluted with the assay buffer to 7.5 nM for JAK1 and 0.75 nM for JAK2 and JAK3, was added to the plate at 20 μL/well, and the plate was incubated at 30° C. for 1 h. The plate was washed four times with buffer (50 mM Tris-HCl (pH 7.5), 150 mM NaCl, 0.02 (v/v) % Tween-20). A blocking buffer (0.1% Bovine Serum Albumin, 50 mM Tris-HCl (pH 7.5), 150 mM NaCl, 0.02 (v/v) % Tween-20) was added to the plate at 150 μL/well, and the plate was blocked at 30° C. for 1 h. The blocking buffer was removed, and a horse radish peroxidase-labeled anti-phosphorylated tyrosine antibody (BD Biosciences, Inc.) (diluted to 10000-fold with the blocking buffer) was added to the plate at 100 μL/well, and the plate was incubated at 30° C. for 30 min. The plate was washed with the washing buffer four times, and 3,3′,5,5′-tetramethylbenzidine solution (Nacalai Tesque) was added to the plate at 100 μL/well to develop the color for 10 minutes. To the plate was added 0.1 M sulfuric acid at 100 μL/well to stop the reaction. The absorbance at 450 nm was measured using a microplate reader (BIO-RAD).

JAK3 = molecular target: T2, JAK3 (Homo sapiens, UniProt P52333); assay: JAK tyrosine kinase inhibitory activity in the presence of 1 mM ATP (ELISA), JAK3
T2 construct: purchased Carna Biosciences, Inc
T2 sequence (P52333 1-1124): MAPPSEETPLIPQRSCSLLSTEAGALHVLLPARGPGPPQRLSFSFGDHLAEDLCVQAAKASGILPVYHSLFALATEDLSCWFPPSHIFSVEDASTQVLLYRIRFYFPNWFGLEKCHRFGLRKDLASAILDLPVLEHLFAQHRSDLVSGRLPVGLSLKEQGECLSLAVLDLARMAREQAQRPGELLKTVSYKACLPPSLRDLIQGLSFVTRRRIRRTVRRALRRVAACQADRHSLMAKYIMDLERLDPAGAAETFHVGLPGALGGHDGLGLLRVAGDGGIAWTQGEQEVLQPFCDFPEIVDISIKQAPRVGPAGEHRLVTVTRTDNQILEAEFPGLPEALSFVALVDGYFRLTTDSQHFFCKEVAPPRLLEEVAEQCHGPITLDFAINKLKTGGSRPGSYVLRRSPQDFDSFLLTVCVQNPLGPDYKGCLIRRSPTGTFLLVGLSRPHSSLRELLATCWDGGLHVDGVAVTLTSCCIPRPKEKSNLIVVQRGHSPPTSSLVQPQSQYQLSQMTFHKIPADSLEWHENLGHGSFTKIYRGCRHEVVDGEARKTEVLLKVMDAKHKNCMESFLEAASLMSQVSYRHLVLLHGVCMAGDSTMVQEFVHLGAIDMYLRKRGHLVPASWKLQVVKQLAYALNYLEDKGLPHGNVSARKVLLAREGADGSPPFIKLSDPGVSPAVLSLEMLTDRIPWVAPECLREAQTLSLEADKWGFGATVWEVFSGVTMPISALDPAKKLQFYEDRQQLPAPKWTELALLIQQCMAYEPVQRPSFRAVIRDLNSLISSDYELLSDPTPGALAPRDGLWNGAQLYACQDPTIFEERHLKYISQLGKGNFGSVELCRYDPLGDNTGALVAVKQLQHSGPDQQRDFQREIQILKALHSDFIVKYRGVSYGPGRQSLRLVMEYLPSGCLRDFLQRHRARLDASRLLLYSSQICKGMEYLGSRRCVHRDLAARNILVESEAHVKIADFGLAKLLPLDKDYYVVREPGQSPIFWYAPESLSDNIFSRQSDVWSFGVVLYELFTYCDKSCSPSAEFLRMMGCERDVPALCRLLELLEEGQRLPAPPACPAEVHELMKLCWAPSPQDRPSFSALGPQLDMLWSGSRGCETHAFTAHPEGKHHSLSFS
Experimental: as §1, §2

JAK2 = molecular target: T3, JAK2 (Homo sapiens, UniProt O60674); assay: JAK tyrosine kinase inhibitory activity in the presence of 1 mM ATP (ELISA), JAK2
T3 construct: purchased Carna Biosciences, Inc
T3 sequence (O60674 whole entry): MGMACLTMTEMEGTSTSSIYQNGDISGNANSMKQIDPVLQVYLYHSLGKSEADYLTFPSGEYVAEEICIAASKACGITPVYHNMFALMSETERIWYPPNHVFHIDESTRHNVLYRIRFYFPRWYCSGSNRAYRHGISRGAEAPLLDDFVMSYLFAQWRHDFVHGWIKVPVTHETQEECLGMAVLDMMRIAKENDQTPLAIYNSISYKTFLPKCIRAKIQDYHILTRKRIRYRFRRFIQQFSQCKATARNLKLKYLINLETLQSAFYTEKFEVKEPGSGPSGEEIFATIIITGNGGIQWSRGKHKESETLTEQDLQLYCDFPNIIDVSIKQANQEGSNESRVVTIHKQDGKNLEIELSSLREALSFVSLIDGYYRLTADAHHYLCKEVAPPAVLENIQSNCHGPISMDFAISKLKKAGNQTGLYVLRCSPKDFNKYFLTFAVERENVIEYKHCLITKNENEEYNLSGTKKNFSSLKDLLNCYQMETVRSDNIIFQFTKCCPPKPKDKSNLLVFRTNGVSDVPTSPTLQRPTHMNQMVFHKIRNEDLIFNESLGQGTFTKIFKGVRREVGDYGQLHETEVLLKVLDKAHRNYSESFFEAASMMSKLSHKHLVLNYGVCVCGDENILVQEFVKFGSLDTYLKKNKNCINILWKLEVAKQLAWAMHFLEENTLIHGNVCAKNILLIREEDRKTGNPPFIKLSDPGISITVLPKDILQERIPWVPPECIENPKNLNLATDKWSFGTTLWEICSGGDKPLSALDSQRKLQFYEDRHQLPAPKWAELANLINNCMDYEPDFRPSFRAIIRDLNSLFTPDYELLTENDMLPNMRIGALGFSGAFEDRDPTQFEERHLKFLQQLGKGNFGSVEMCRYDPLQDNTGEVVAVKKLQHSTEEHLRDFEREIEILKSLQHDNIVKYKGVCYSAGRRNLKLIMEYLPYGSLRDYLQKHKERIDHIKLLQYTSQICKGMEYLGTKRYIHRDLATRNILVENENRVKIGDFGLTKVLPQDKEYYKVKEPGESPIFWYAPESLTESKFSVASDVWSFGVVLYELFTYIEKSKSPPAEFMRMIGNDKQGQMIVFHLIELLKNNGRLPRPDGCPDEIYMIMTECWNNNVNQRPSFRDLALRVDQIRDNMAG
Experimental: as §1, §2

T1 sequence (P23458 whole entry): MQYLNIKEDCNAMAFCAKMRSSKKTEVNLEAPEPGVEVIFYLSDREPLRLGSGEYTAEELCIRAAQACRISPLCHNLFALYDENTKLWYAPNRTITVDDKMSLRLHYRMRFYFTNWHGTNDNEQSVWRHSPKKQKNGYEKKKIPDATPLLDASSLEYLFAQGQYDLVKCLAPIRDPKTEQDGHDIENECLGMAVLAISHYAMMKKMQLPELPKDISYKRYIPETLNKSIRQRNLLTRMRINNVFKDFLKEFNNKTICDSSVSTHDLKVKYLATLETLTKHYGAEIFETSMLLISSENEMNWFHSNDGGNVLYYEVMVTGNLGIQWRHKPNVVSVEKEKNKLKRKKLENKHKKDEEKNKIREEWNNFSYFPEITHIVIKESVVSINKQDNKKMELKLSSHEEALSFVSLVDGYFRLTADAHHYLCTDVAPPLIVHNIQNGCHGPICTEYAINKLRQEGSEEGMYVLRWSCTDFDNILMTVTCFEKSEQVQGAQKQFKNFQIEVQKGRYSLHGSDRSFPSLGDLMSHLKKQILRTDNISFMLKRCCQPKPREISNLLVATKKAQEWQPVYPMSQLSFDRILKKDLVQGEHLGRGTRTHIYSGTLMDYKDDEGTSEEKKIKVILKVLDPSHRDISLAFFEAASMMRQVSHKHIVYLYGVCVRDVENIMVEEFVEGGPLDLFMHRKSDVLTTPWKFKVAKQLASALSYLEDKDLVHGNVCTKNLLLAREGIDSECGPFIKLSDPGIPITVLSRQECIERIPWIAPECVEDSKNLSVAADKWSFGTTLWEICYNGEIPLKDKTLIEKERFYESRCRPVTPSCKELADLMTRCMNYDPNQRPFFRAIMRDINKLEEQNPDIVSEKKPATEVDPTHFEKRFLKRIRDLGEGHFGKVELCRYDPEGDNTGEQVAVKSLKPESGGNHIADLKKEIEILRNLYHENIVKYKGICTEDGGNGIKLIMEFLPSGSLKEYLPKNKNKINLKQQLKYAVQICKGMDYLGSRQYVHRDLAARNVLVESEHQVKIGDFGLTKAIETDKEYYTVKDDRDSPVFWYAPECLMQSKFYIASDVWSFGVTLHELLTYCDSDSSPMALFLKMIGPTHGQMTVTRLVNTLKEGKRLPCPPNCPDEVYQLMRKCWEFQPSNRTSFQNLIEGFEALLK

IC50 (JAK1) [nM]	IC50 (JAK3) [nM]	IC50 (JAK2) [nM]	SMILES
310	3000	3700	CC[C@H](C)Nc1cc(C(=O)N2CCC(NC(=O)OC)CC2)nc(-c2cnn3ccsc23)n1 [Example 1, Methyl [1-({6-[(2S)-butan-2-ylamino]-2-(pyrazolo [5,1-b][1,3]thiazol-7-yl)pyrimidin-4-yl}carbonyl)piperidin-4-yl]carbamate Tosylate Monohydrate]
470	6000	5700	CC[C@@H](C)Nc1cc(C(=O)N2CCC(NC(=O)OC)CC2)nc(-c2cnn3ccsc23)n1 [Example 2, Methyl [1-({6-[(2R)-butan-2-ylamino]-2-(pyrazolo[5,1-b][1,3]thiazol-7-yl)pyrimidin-4-yl}carbonyl)piperidin-4-yl]carbamate Tosylate Monohydrate]
270	1900	2600	COC(=O)NC1CCN(C(=O)c2cc(N[C@@H](C)C3CC3)nc(-c3cnn4ccsc34)n2)CC1 [Example 3, Methyl (1-{[6-{[(1S)-1-cyclopropylethyl]amino}-2-(pyrazolo[5,1-b][1,3]thiazol-7-yl)pyrimidin-4-yl]carbonyl}piperidin-4-yl)carbamate Tosylate Monohydrate]
